Data published in patent US8471061B2 (priority 2004, dated 2013).
“And” between values parts separate entries of the source, which are not always exact repeats. Equal entries are not always repeated. Where two headings read alike, the source gives them in different places.

Experiments:
[1] = system: Salmonella typhimurium TA 98; assay: Back mutation test, TA98; format: cell-based
Description: A test was carried out in accordance with the “Standard of Mutagenicity Tests Using Microorganisms” (Ministry of Labor Notification No. 77, 1988) (partial revision by Ministry of Labor Notification No. 67, 1997) and “Regarding the Tests Concerning Novel Chemical Substances and the like” (dated Nov. 21, 2003: Yaku-Shoku-Hatsu No. 1121002, 2003.11.13 Sei-Kyoku, No. 2, Kan-Ho-Ki-Hatsu No. 031121002). To 0.1 ml of a solution prepared by dissolving 5% (w/v) of 5-aminolevulinic acid phosphate in distilled water (Wako Pure Chemical Industries), 0.5 ml of 0.1 M sodium-phosphate buffer (pH 7.4) (0.5 ml S9 mix in the case of metabolism activation test) was added, and 0.1 ml of each test strain suspension (5 strains of histidine-less Salmonella typhimurium TA 100, TA 98, TA 1535 and TA 1537 and tryptophan-less Escherichia coli WP2 uvrA were used (Japan Bioassay Research Center)) was further added thereto, followed by pre-incubation at 37° C. for 20 minutes while shaking. After completion of the culturing, 2.0 ml of top agar kept at 45° C. in advance was added thereto and layered on a minimum glucose agar plate medium. In this case, 2 plates were arranged for each dosage. However, 3 plates were arranged for a solvent control (negative control). […] In the measurement, an inner area of about 80 mm in diameter of a plate of 86 mm in diameter (84 mm in inner diameter) was measured using an automatic colony analyzer (CA-11: manufactured by System Science), and calculated by carrying out area correction and counting loss correction using a personal computer. However, since reliability of the automatic colony analyzer is reduced when the number of colonies is 1,500 or more, 5 points in the plate were manually measured under the stereoscopic microscope to carry out area correction of the average value. A dosage setting test was carried out on 7 dosages diluted at a common ratio of 4, using a dosage of 5,000 μg/plate as the maximum which is the maximum dosage defined by the guideline. […] Growth inhibition of the strains by this substance to be tested was not found. […] Thus, this test was carried out by setting 5 dosages diluted at a common ratio of 2, using a dosage of 5,000 μg/plate as the maximum which is the maximum dosage defined by the guideline.

[2] = system: female rats (Sprague-Dawley CD species); conditions: for Dead animals: 2000 mg/kg oral, per animal
Description: This test was carried out in accordance with the OECD Guideline No. 423 “Acute Oral Toxicity-Acute Toxicity Grading Method” (adopted on Dec. 17, 2001). Fasted female rats (Sprague-Dawley CD species) of 3 animals per group were treated with 5-aminolevulinic acid phosphate at a dose of 300 mg per kg body weight. In addition, other fasted female rats of two or more groups were treated at a dose of 2000 mg per kg body weight. They were observed after the administration continuously for 2 weeks.

[3] = system: Salmonella typhimurium TA 100, TA 98, TA 1535 and TA 1537 and Escherichia coli WP2 uvrA; assay: Mutagenicity test (back mutation test) using microorganisms, all strains; format: cell-based
Description: A test was carried out in accordance with the “Standard of Mutagenicity Tests Using Microorganisms” (Ministry of Labor Notification No. 77, 1988) (partial revision by Ministry of Labor Notification No. 67, 1997) and “Regarding the Tests Concerning Novel Chemical Substances and the like” (dated Nov. 21, 2003: Yaku-Shoku-Hatsu No. 1121002, 2003.11.13 Sei-Kyoku, No. 2, Kan-Ho-Ki-Hatsu No. 031121002). […] In the measurement, an inner area of about 80 mm in diameter of a plate of 86 mm in diameter (84 mm in inner diameter) was measured using an automatic colony analyzer (CA-11: manufactured by System Science), and calculated by carrying out area correction and counting loss correction using a personal computer. However, since reliability of the automatic colony analyzer is reduced when the number of colonies is 1,500 or more, 5 points in the plate were manually measured under the stereoscopic microscope to carry out area correction of the average value. […]

[4] = Chloride ion concentration of aqueous solutions by ion chromatography; format: physicochemical; conditions: detection limit 0.1 ppm; each sample
Description: When chloride ion concentration in the aqueous 5-aminolevulinic acid phosphate solutions used in the above-described examples was measured by ion chromatography under the following conditions, it was equal to or lower than the detection limit (0.1 ppm) in each sample.
The measuring conditions are as follows; A: separation column (IonPac AS12A manufactured by Japan Dionex), B: guard column (IonPac AG12A manufactured by Japan Dionex), C: eluting solution (an aqueous solution containing Na2CO3: 3.0 mmol/l and NaHCO3: 0.5 mmol/l), D: flow rate (1.5 ml/min), E: suppressor (ASRS (recycle mode, current value 50 mA)), F: amount of introduced sample (25 μl), G: temperature of constant temperature oven (35° C.) and H: detector (electric conductivity detector).
When chloride ion concentration in the aqueous 5-aminolevulinic acid nitrate solutions used in the above-described examples was measured by ion chromatography under the following conditions, it was equal to or lower than the detection limit (0.1 ppm) in each sample.
The measuring conditions are as follows: A: separation column (IonPac AS12A manufactured by Japan Dionex), B: guard column (IonPac AG12A manufactured by Japan Dionex), C: eluting solution (an aqueous solution consisting of Na2CO3: 3.0 mmol/l and NaHCO3: 0.5 mmol/l), D: flow rate (1.5 ml/min), E: suppressor (ASRS (recycle mode, current value 50 mA)), F: amount of introduced sample (25 μl), G: temperature of constant temperature oven (35° C.) and H: detector (electric conductivity detector).
When chloride ion concentration in the aqueous 5-aminolevulinic acid p-toluenesulfonate solutions used in the above-described examples was measured by ion chromatography under the following conditions, it was equal to or lower than the detection limit (0.1 ppm) in each sample.

NCC(=O)CCC(=O)O.O=P(O)(O)O [5-aminolevulinic acid phosphate, 5-aminolevulinic Acid Phosphate]
number of back mutation, mean (in parentheses) ([1]; S9 Mix(+), 313 μg/plate): (12) colonies/plate | number of back mutation, single plates ([1]; S9 Mix(+), 313 μg/plate, Phosphate): 13 colonies/plate and 11 colonies/plate | number of back mutation, mean (in parentheses) ([1]; S9 Mix(+), 625 μg/plate): (9) colonies/plate | number of back mutation, single plates ([1]; S9 Mix(+), 625 μg/plate): 9 colonies/plate | number of back mutation, mean (in parentheses) ([1]; S9 Mix(+), 1250 μg/plate): (21) colonies/plate | number of back mutation, single plates ([1]; S9 Mix(+), 1250 μg/plate, Phosphate): 14 colonies/plate and 27 colonies/plate | number of back mutation, mean (in parentheses) ([1]; S9 Mix(+), 2500 μg/plate): (11) colonies/plate | number of back mutation, mean (in parentheses) ([1]; S9 Mix(+), 5000 μg/plate): (21) colonies/plate | number of back mutation, single plates ([1]; S9 Mix(+), 5000 μg/plate, Phosphate): 20 colonies/plate and 21 colonies/plate | number of back mutation, mean (in parentheses) ([1]; S9 Mix(−), 313 μg/plate): (8) colonies/plate | number of back mutation, single plates ([1]; S9 Mix(−), 313 μg/plate, Phosphate): 9 colonies/plate and 7 colonies/plate | number of back mutation, mean (in parentheses) ([1]; S9 Mix(−), 625 μg/plate): (9) colonies/plate | number of back mutation, mean (in parentheses) ([1]; S9 Mix(−), 1250 μg/plate): (6) colonies/plate | number of back mutation, mean (in parentheses) ([1]; S9 Mix(−), 2500 μg/plate): (16) colonies/plate | number of back mutation, single plates ([1]; S9 Mix(−), 2500 μg/plate, Phosphate): 15 colonies/plate and 17 colonies/plate | number of back mutation, mean (in parentheses) ([1]; S9 Mix(−), 5000 μg/plate): (8) colonies/plate | number of back mutation, single plates ([1]; S9 Mix(−), 5000 μg/plate, Phosphate): 9 colonies/plate and 7 colonies/plate | Dead animals ([2]; 0.5 hour after administration): 0 | Dead animals ([2]; 1 hour after administration): 0 | Dead animals ([2]; 2 hour after administration): 0 | Dead animals ([2]; 4 hour after administration): 0 | Dead animals ([2]; day 1 after administration): 0 | Dead animals ([2]; day 2 after administration): 0 | Dead animals ([2]; day 3 after administration): 0 | Dead animals ([2]; day 4 after administration): 0 | Dead animals ([2]; day 5 after administration): 0 | Dead animals ([2]; day 6 after administration): 0 | Dead animals ([2]; day 7 after administration): 0 | Dead animals ([2]; day 8 after administration): 0 | Dead animals ([2]; day 9 after administration): 0 | Dead animals ([2]; day 10 after administration): 0 | Dead animals ([2]; day 11 after administration): 0 | Dead animals ([2]; day 12 after administration): 0 | Dead animals ([2]; day 13 after administration): 0 | Dead animals ([2]; day 14 after administration): 0 | death ([2]; 300 and 2000 mg per kg body weight, 2 weeks): death was not found in all of the rats | acute oral 50% lethal dose (LD50) ([2]; fasted female rats, observed 2 weeks): > 2,500 mg per kg body weight | mutation inducing ability [3]: does not have the mutation inducing ability | chloride ion concentration in the aqueous solutions used in the examples [4]: ≤ 0.1 ppm
